One experiment addresses T1, CNGA2RE:A4RE:B1b (Rattus norvegicus, UniProt A0A8I5ZN27+Q00195+Q64359, R430E/R538E).
T1 construct: expressed in transfected cells; host or cells: Xenopus laevis oocytes (cRNA injection), excised inside-out patches
In words: Concentration-activation relationship and activation by fluorescent ligands, patch-clamp. It counts as biochemical. The method, then:
In order to determine the apparent affinity of the modulatory subunits in heterotetrameric CNGA2:A4:B1b channels for cGMP, we coexpressed each of them with disabled neighbored subunits, generating themselves activation effects only at much higher ligand concentrations. In case of two well-separated current components, this would allow us to determine the EC50 value for the CNGB1b and CNGA4 subunit in functional heterotetrameric channels. Patch-clamp experiments were performed using an Axopatch 200B amplifier (Molecular Devices LLC, CA, U.S.A.) in the inside-out configuration. The patch pipettes for recording of macroscopic currents were pulled from borosilicate glass tubing (outer diameter 2.0 mm, inner diameter 1.0 mm; Hilgenberg GmbH, Germany). […] The patches were formed as pushed inside-out patches. […] Cyclic nucleotide concentration jumps were performed using a double-barreled glass pipette mounted on a piezo-driven device. Intracellular (bath) and extracellular (pipette) solutions contained (mM) 150 KCl, 1 EGTA, 5 Hepes, pH = 7.4 with KOH. […] Currents in the absence of the cyclic nucleotide were subtracted. All patches included in this study were first tested for channel expression in the presence of a saturating ligand concentration. Only patches with large current, i.e. a large number of channels, were included in our statistics. The currents were measured at +10 mV or, if mentioned, at +100 mV. Fits of equations to data points were performed with the 8.1G® software (OriginLab Corporation, Northampton, U.S.A.). Concentration-activation relationships were obtained by relating the actual current amplitude, I, to the maximum current amplitude elicited by a saturating concentration of ligand, Imax, and plotting this ratio as function of the ligand concentration, x.
(In general: The patch-clamp technique gives a direct electrical read-out from membranes.)

Experiment [1] concerns homotetrameric CNGA2TM (T539M) channels. The note with it: cited from earlier work.
The target of the next experiment is T2, CNGA2TM:A4RE:B1bRE (Rattus norvegicus, UniProt A0A8I5ZN27+Q00195+Q64359, R1106E/R430E/T539M).
T2 construct: expressed in transfected cells; host or cells: Xenopus laevis oocytes (cRNA injection), excised inside-out patches
T2 sequence (Q00195 whole entry T539M): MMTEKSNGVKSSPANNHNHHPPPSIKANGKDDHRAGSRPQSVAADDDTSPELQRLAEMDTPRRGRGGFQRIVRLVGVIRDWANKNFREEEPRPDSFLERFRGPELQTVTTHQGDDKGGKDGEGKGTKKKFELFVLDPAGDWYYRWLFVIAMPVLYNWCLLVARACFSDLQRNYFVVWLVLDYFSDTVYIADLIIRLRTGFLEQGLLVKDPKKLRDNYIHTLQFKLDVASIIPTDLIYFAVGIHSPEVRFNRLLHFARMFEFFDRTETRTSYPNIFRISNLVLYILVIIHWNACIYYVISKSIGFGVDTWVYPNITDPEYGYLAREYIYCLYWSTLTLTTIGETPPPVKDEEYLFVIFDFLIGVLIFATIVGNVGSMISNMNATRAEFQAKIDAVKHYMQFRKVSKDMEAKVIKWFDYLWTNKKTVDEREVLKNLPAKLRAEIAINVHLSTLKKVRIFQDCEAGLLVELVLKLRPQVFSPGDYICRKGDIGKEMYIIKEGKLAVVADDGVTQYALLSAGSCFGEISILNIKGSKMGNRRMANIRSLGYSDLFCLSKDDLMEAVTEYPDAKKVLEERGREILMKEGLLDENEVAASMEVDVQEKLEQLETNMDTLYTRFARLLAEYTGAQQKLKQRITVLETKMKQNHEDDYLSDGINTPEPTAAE
T2 sequence (Q64359 whole entry R430E): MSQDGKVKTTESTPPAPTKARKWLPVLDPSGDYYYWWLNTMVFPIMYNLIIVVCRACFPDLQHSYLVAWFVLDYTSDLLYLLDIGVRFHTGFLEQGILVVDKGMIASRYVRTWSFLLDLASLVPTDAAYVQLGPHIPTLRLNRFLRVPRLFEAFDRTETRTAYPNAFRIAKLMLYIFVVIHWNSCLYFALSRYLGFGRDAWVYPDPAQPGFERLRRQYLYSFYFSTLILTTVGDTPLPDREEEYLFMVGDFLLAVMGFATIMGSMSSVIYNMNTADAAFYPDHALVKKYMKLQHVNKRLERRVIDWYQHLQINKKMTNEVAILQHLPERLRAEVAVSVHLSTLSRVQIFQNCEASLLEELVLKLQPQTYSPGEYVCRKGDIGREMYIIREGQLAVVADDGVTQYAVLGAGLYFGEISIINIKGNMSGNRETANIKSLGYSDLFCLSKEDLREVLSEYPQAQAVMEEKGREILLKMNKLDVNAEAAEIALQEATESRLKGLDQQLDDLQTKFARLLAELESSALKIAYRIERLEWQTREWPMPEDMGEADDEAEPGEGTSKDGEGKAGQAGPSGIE
T2 sequence (A0A8I5ZN27 1-858 isoform A0A8I5ZN27-2 R657E): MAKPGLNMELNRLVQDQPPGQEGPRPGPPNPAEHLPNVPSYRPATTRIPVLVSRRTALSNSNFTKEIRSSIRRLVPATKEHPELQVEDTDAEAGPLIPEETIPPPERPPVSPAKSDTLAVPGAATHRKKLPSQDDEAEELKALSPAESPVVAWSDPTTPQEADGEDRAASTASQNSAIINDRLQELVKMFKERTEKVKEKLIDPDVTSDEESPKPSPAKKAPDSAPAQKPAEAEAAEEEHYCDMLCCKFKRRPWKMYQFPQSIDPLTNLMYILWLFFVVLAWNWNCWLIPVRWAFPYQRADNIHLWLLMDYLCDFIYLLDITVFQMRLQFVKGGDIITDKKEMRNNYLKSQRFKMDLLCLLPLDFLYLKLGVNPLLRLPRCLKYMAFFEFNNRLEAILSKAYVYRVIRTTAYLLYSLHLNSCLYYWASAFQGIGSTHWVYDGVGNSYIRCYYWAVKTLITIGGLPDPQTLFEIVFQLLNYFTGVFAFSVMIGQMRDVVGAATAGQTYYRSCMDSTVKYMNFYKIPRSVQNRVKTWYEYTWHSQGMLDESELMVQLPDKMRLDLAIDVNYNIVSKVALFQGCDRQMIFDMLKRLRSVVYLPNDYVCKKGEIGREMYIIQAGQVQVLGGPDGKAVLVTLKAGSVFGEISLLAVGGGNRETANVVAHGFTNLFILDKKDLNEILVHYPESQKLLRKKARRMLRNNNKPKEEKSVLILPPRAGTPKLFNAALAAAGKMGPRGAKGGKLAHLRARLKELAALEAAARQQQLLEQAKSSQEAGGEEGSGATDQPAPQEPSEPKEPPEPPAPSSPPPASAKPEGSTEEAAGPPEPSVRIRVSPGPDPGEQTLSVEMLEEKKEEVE
In words: Channel activation during confocal patch-clamp fluorometry. Conditions: 10 μM fcGMP; all four binding sites disabled. It counts as biochemical. On the procedure: (§1) To verify the hypothesis that the CNGB1b subunit in CNGA2:A4:B1b channels binds cyclic nucleotides, we coexpressed CNGB1b with CNGA4RE and either CNGA2RE or CNGA2TM and measured ligand binding in the presence of 10 μM fcGMP. […] To verify the specificity of the binding to the CNGB1b subunit in these heterotetrameric channels, we coexpressed the CNGB1bRE subunit with CNGA2RE and CNGA4RE.
(§2) Figure 2 In a CNGA2:A4 background the CNGB1b subunit binds both fcGMP and fHcAMP and activates the channel. (a) Binding of fcGMP to the CNGB1b subunit evokes channel activation. Binding of fcGMP to CNGB1b was observed when coexpressed with either CNGA2RE:A4RE or CNGA2TM:A4RE (upper diagram). […] (b) Binding of fHcAMP to CNGB1b was observed when coexpressed with both CNGA2RE and CNGA4RE. When disabling the binding domain of CNGB1b, the fluorescence intensity was nearly abolished. Correspondingly, CNGA2RE:A4RE:B1b channels were activated by the ligand only when the CNGB1b binding site was available.
(§3) Patch-clamp experiments were performed using an Axopatch 200B amplifier (Molecular Devices LLC, CA, U.S.A.) in the inside-out configuration. The patch pipettes for recording of macroscopic currents were pulled from borosilicate glass tubing (outer diameter 2.0 mm, inner diameter 1.0 mm; Hilgenberg GmbH, Germany). The initial resistance was 0.7–1.3 MΩ. The patches were formed as pushed inside-out patches. […] Cyclic nucleotide concentration jumps were performed using a double-barreled glass pipette mounted on a piezo-driven device. Intracellular (bath) and extracellular (pipette) solutions contained (mM) 150 KCl, 1 EGTA, 5 Hepes, pH = 7.4 with KOH. […] Currents in the absence of the cyclic nucleotide were subtracted. All patches included in this study were first tested for channel expression in the presence of a saturating ligand concentration. Only patches with large current, i.e. a large number of channels, were included in our statistics. The currents were measured at +10 mV or, if mentioned, at +100 mV.
(§4) The ligand binding was measured in macropatches by patch-clamp fluorometry[41][42] combined with confocal microscopy. […] Recordings were performed with an LSM 510 or 710 confocal microscope (Zeiss, Jena, Germany) and were triggered by the ISO3 software (MFK, Niedernhausen, Germany). To distinguish between the fluorescence of the unbound ligands from that of the bound ligands, a second dye, DY647 (Dyomics, Jena, Germany), was added to the bath solution. The 543-nm and 633-nm lines of a He-Ne laser were used to excite fcAMP/fcGMP and DY647, respectively. The method of confocal patch-clamp fluorometry has been described in detail previously.

The next experiment concerns the target T3, CNGA2TM:A4RE:B1b (Rattus norvegicus, UniProt A0A8I5ZN27+Q00195+Q64359, R430E/T539M).
T3 construct: expressed in transfected cells; host or cells: Xenopus laevis oocytes (cRNA injection), excised inside-out patches
The experiment is described as above. Conditions: 10 μM fcGMP; normalized to current at 4 mM cGMP. It counts as biochemical. On the procedure: as §1, §2, §3, §4

For a further experiment, the target named is T4, CNGA2RE:A4RE:B1bRE (Rattus norvegicus, UniProt A0A8I5ZN27+Q00195+Q64359, R1106E/R430E/R538E).
T4 construct: expressed in transfected cells; host or cells: Xenopus laevis oocytes (cRNA injection), excised inside-out patches
T4 sequence (Q00195 whole entry R538E): as the sequence (Q00195 whole entry T539M) above, with R538E, M539T counted along it
T4 sequence (Q64359 whole entry R430E): as the sequence (Q64359 whole entry R430E) above
T4 sequence (A0A8I5ZN27 1-858 isoform A0A8I5ZN27-2 R657E): as the sequence (A0A8I5ZN27 1-858 isoform A0A8I5ZN27-2 R657E) above
Described as above. It counts as biochemical. Conditions: 10 μM fcGMP; all four binding sites disabled. On the procedure:
as §1, §2, §3, §4

The next experiment has as its target T5, CNGA2TM:A4 (Rattus norvegicus, UniProt Q00195+Q64359, T539M).
T5 construct: expressed in transfected cells; host or cells: Xenopus laevis oocytes (cRNA injection), excised patches
Kind of experiment: Ligand binding, confocal patch-clamp fluorometry. The note with it: 10 μM; construct CNGA2TM:A4. On the set-up: key: +: ligand binding to the respective modulatory subunits was either observed or not; −: ligand binding to the respective modulatory subunits was either observed or not.
Text: The channels to be studied were expressed in Xenopus oocytes. We first tested the subunit composition in our channels when coexpressing different combinations of subunits by single-channel recordings. For CNGA2:A4, CNGA2:B1b and CNGA2:A4:B1b channels we exclusively obtained the specific and easily distinguishable single-channel activity reported earlier when injecting respective amounts of RNA[7][13]. We therefore assumed that the channels formed had always the expected subunit composition. The specific binding of cyclic nucleotides and the activation of the CNG channels were measured in parallel by means of confocal patch-clamp fluorometry in excised patches, using fluorescent cyclic nucleotide derivatives. The method has been described previously.
as §4

Where “and” joins values, the source holds several entries; their conditions need not be identical. Equal values may be shown once. Read-outs that look alike come from different tables or passages of the source.

These results are taken from PMC4942689, “Deciphering the function of the CNGB1b subunit in olfactory CNG channels” (Scientific Reports, 2016).

T1 sequence (Q00195 whole entry R538E): as the sequence (Q00195 whole entry T539M) above, with R538E, M539T counted along it
T1 sequence (Q64359 whole entry R430E): as the sequence (Q64359 whole entry R430E) above
T1 sequence (A0A8I5ZN27 1-858 isoform A0A8I5ZN27-2, stated change not applied): as the sequence (A0A8I5ZN27 1-858 isoform A0A8I5ZN27-2 R657E) above, with E657R counted along it
T3 sequence (Q00195 whole entry T539M): as the sequence (Q00195 whole entry T539M) above
T3 sequence (Q64359 whole entry R430E): as the sequence (Q64359 whole entry R430E) above
T3 sequence (A0A8I5ZN27 1-858 isoform A0A8I5ZN27-2, stated change not applied): as the sequence (A0A8I5ZN27 1-858 isoform A0A8I5ZN27-2 R657E) above, with E657R counted along it
T5 sequence (Q00195 whole entry T539M): as the sequence (Q00195 whole entry T539M) above
T5 sequence (Q64359 whole entry): as the sequence (Q64359 whole entry R430E) above, with E430R counted along it

`Nc1nc2c(ncn2[C@@H]2O[C@@H]3COP(=O)(O)O[C@H]3[C@H]2O)c(=O)[nH]1` [cGMP] gave an H1 at CNGA2RE:A4RE:B1b (Hill coefficient of low affinity component, CNGA2RE:A4RE:B1b, +100 mV) of 1.2. For the same molecule, the “a (contribution of the high affinity component)” value at CNGA2RE:A4RE:B1b (fraction, CNGA2RE:A4RE:B1b, Equation 2) is reported as 0.07. The concentration for a half-maximal effect (EC50) (as a rule, the concentration that produces a half-maximal response) is 3.6 µM at CNGA2RE:A4RE:B1b (high affinity component (action of CNGB1b), CNGA2RE:A4RE:B1b, Equation 2, +100 mV, read-out: EC50,h); 178 µM on CNGA2RE:A4RE:B1b (low affinity component, CNGA2RE:A4RE:B1b, Equation 2, +100 mV, read-out: EC50,l); 10.4 µM in experiment [1] (CNGA2TM, Equation 1, ref Nache et al., 2012). Also, on CNGA2RE:A4RE:B1b (of the maximum channel activity generated by all subunits, CNGA2RE:A4RE:B1b), the “maximum contribution of CNGB1b to channel activation (a)” value is 7.2% and ~ 7%.

With 8-[DY-547]-AET-cGMP [fcGMP], the “activation (I/Imax)” value at CNGA2RE:A4RE:B1b (10 μM fcGMP, normalized to current at 4 mM cGMP) was determined as 1.6 ± 0.4%; on CNGA2TM:A4RE:B1b, 1.7 ± 0.6%. Also, the activation entry in experiment [1] (10 μM fcGMP, homotetrameric CNGA2TM) is on record as “negligible activation”; at CNGA2TM:A4RE:B1bRE, “did not trigger activation”; on CNGA2RE:A4RE:B1bRE it was “did not trigger activation”. Also, the “Ligand binding to CNGA4” value on CNGA2TM:A4 was “+”.
